# Results: the supplement of paper PMC11208160
# Test: recombinant UMI read abundance after kanamycin selection (control-corrected) (log10(CPM+1)); higher = more efficient recombination; extreme values may be limits of the assay; sequences stand for … in AGTGCAGAGAAAATCGGCCAGTTTTCTCTGCCTGCAGTCCGCATGCCGTGGGACCCCTTGGGTTCTAACCTGTTGCCTAGATTTATGCAGCGGACTGCCTTTCTCCCAAAGTGATAAACCGG…AGGTTGGTTTCACT; site = the 11-nt donor
# How it was run: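 For the IS621 bridge recombinase, a pooled Escherichia coli screen tested donor and donor-binding-loop pairs. Cells received the pair library together with a target plasmid encoding a fixed target and T7-inducible recombinase, then went onto IPTG (0.07 mM) plus kanamycin or unselected plates in duplicate. After PCR across the donor–target junction and sequencing, recombinant UMI counts were normalized to CPM, averaged, and scaled by control-derived factors. Each value is given as log10(CPM+1).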
row,Sequence,recombinant UMI read abundance (log10)
1,CAAGCAGCATGGACCGGTTTTCCCGGTAATCCGTATTTGCA (site CAAGCAGCTCG),1.43
2,CAAGCAGCATGGACCGGTTTTCCCGGTAATCCGTATTTGCA (site CAAGCAGCTGG),1.06
3,CAAGCAGCATGGACCGGTTTTCCCGGTAATCCGTATTTGCA (site CAAGCAGCTTG),2.81
4,CAAGCAGCATGGACCGGTTTTCCCGGTAATCCGTATTTGGT (site CAAGCAGCTAA),0.922
5,CAAGCAGCATGGACCGGTTTTCCCGGTAATCCGTATTTGGT (site CAAGCAGCTAC),1.73
6,CAAGCAGCATGGACCGGTTTTCCCGGTAATCCGTATTTGGT (site CAAGCAGCTAG),1.5
7,CAAGCAGCATGGACCGGTTTTCCCGGTAATCCGTATTTGGT (site CAAGCAGCTAT),1.85
8,CAAGCGACATGGACCGGTTTTCCCGGTAATCCGTATTTGTG (site CAAGCGACTCA),1.19
9,CAAGCGACATGGACCGGTTTTCCCGGTAATCCGTATTTGTG (site CAAGCGCCTCA),0.00397
10,CAAGCGACATGGACCGGTTTTCCCGGTAATCCGTATTTGTG (site CAAGCGGCTCA),1.2
11,CAAGCGACATGGACCGGTTTTCCCGGTAATCCGTATTTGTG (site CAAGCGTCTCA),0.756
12,CAAGCTCCATGGACCGGTTTTCCCGGTAATCCGTATTTGTG (site CAAGCACCTCA),0.0218
13,CAAGCTCCATGGACCGGTTTTCCCGGTAATCCGTATTTGTG (site CAAGCCCCTCA),0.0101
14,CAAGCTCCATGGACCGGTTTTCCCGGTAATCCGTATTTGTG (site CAAGCGCCTCA),0.0257
15,CAAGCTCCATGGACCGGTTTTCCCGGTAATCCGTATTTGTG (site CAAGCTCCTCA),0.0252
16,CAAGGCCCATGGACCGGTTTTCCCGGTAATCCGTATTTGGC (site CAAGGCCCTGC),2.11
17,CAAGGTGCATGGACCGGTTTTCCCGGTAATCCGTATTTGTT (site CAAGGTGCTAA),2.59

row,Sequence,recombinant UMI read abundance (log10)
1,CAAGTAACATGGACCGGTTTTCCCGGTAATCCGTATTTGAC (site CAAGTAACTGT),3.09
2,CAAGTAACATGGACCGGTTTTCCCGGTAATCCGTATTTGAC (site CTAGTATCTGT),0.497
3,CAAGTATCATGGACCGGTTTTCCCGGTAATCCGTATTTGTC (site CAAGTATCTGA),2.66
4,CAAGTATCATGGACCGGTTTTCCCGGTAATCCGTATTTGTC (site CTAGTATCTGT),0
5,CAAGTCACATGGACCGGTTTTCCCGGTAATCCGTATTTGGC (site CAAGTCACTAC),0.739
6,CAAGTCACATGGACCGGTTTTCCCGGTAATCCGTATTTGGC (site CAAGTCACTCC),0.402
7,CAAGTCACATGGACCGGTTTTCCCGGTAATCCGTATTTGGC (site CAAGTCACTGC),2.99
8,CAAGTCACATGGACCGGTTTTCCCGGTAATCCGTATTTGGC (site CAAGTCACTTC),0.596
9,CAAGTCTCATGGACCGGTTTTCCCGGTAATCCGTATTTGAC (site CAAGTCTCTGT),3.08
10,CAAGTCTCATGGACCGGTTTTCCCGGTAATCCGTATTTGAC (site CTAGTATCTGT),0.00697
11,CAATCAACATGGACCGGTTTTCCCGGTAATCCGTATTTGTG (site CAATCAACTCA),0.737
12,CAATCCCCATGGACCGGTTTTCCCGGTAATCCGTATTTGCT (site CAATACCCTAG),1.5
13,CAATCCCCATGGACCGGTTTTCCCGGTAATCCGTATTTGCT (site CAATCCCCTAG),0.977
14,CAATCCCCATGGACCGGTTTTCCCGGTAATCCGTATTTGCT (site CAATGCCCTAG),0
15,CAATCCCCATGGACCGGTTTTCCCGGTAATCCGTATTTGCT (site CAATTCCCTAG),1.78
16,CAATCGCCATGGACCGGTTTTCCCGGTAATCCGTATTTGTG (site CAAACGCCTCA),0.0185
17,CAATCGCCATGGACCGGTTTTCCCGGTAATCCGTATTTGTG (site CAACCGCCTCA),0.0282
